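Test compounds were applied to cells in 96-well plates for 48 hours at 5 doses. TGI is the concentration that stops growth completely.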
Columns and labels:
Assay in all cases: NCI tumour cell line growth inhibition, 48 h
[1] = test system: 786-0 renal
[2] = test system: A498 renal
[3] = test system: A549 NSCLC
[4] = test system: ACHN renal
[5] = test system: CAKI-1 renal
[6] = test system: CCRF-CEM leukemia
[7] = test system: COLO 205 colon
[8] = test system: DU-145 prostate
[9] = test system: EKVX NSCLC
[10] = test system: HCC-2998 colon
[11] = test system: HCT-116 colon
[12] = test system: HCT-15 colon
[13] = test system: HL-60(TB) leukemia
[14] = test system: HOP-62 NSCLC
[15] = test system: HT29 colon
[16] = test system: IGROV1 ovarian
[17] = test system: K-562 leukemia
[18] = test system: KM12 colon
[19] = test system: LOX IMVI melanoma
[20] = test system: M14 melanoma
[21] = test system: MALME-3M melanoma
[22] = test system: MCF7 breast
[23] = test system: MDA-MB-231 breast
[24] = test system: MDA-MB-435
[25] = test system: MDA-N
[26] = test system: MOLT-4 leukemia
[27] = test system: NCI-H226 lung
[28] = test system: NCI-H23 lung
[29] = test system: NCI-H460 lung
[30] = test system: NCI-H522 lung
[31] = test system: NCI/ADR-RES ovarian
[32] = test system: OVCAR-3 ovarian
[33] = test system: OVCAR-4 ovarian
[34] = test system: OVCAR-5 ovarian
[35] = test system: OVCAR-8 ovarian
[36] = test system: PC-3 prostate
[37] = test system: RXF 393 renal
[38] = test system: SF-268 CNS
[39] = test system: SF-295 CNS
[40] = test system: SF-539 CNS
[41] = test system: SK-MEL-2 melanoma
[42] = test system: SK-MEL-28 melanoma
[43] = test system: SK-MEL-5 melanoma
[44] = test system: SK-OV-3 ovarian
[45] = test system: SN12C renal
[46] = test system: SNB-19 CNS
[47] = test system: SNB-75 CNS
[48] = test system: SR leukemia
[49] = test system: SW-620 colon
[50] = test system: T-47D breast
[51] = test system: TK-10 renal
[52] = test system: U251 CNS
[53] = test system: UACC-257 melanoma
[54] = test system: UACC-62 melanoma
[55] = test system: UO-31 renal
[56] = test system: BT-549 breast
[57] = test system: HOP-92 NSCLC
[58] = test system: HS 578T breast
[59] = test system: RPMI-8226 leukemia

COc1ccc(-c2c3c(n(C4OC(COC(C)=O)C(OC(C)=O)C(OC(C)=O)C4OC(C)=O)c(=S)c2C#N)CCCC3)cc1 (centres undefined)
TGI [1]: > 100 µM
TGI [2]: 90 µM
TGI [3]: > 100 µM
TGI [4]: > 100 µM
TGI [5]: 79.9 µM
TGI [6]: > 100 µM
TGI [7]: > 100 µM
TGI [8]: > 100 µM
TGI [9]: > 100 µM
TGI [10]: > 100 µM
TGI [11]: > 100 µM
TGI [12]: > 100 µM
TGI [13]: > 100 µM
TGI [14]: > 100 µM
TGI [15]: > 100 µM
TGI [16]: > 100 µM
TGI [17]: > 100 µM
TGI [18]: > 100 µM
TGI [19]: > 100 µM
TGI [20]: > 100 µM
TGI [21]: > 100 µM
TGI [22]: > 100 µM
TGI [23]: > 100 µM
TGI [24]: > 100 µM
TGI [25]: > 100 µM
TGI [26]: > 100 µM
TGI [27]: > 100 µM
TGI [28]: > 100 µM
TGI [29]: > 100 µM
TGI [30]: > 100 µM
TGI [31]: > 100 µM
TGI [32]: 92.6 µM
TGI [33]: 98.9 µM
TGI [34]: > 100 µM
TGI [35]: > 100 µM
TGI [36]: 66.7 µM
TGI [37]: 88.7 µM
TGI [38]: > 100 µM
TGI [39]: > 100 µM
TGI [40]: > 100 µM
TGI [41]: 72.5 µM
TGI [42]: > 100 µM
TGI [43]: > 100 µM
TGI [44]: > 100 µM
TGI [45]: > 100 µM
TGI [46]: > 100 µM
TGI [47]: 94 µM
TGI [48]: > 100 µM
TGI [49]: > 100 µM
TGI [50]: > 100 µM
TGI [51]: > 100 µM
TGI [52]: > 100 µM
TGI [53]: > 100 µM
TGI [54]: > 100 µM
TGI [55]: > 100 µM

COc1ccc(C(CC(=O)c2ccc(O)cc2)C(C(=O)c2ccc(O)cc2)C(c2ccc(OC)cc2)C2C(=O)NC(=S)NC2=O)cc1 (centres undefined)
TGI [1]: 44.2 µM
TGI [2]: > 100 µM
TGI [3]: 89.9 µM
TGI [4]: 43.6 µM
TGI [56]: 47.9 µM
TGI [6]: 36 µM
TGI [7]: 45.1 µM
TGI [8]: 33.8 µM
TGI [11]: 30.4 µM
TGI [12]: 45.3 µM
TGI [13]: 85.6 µM
TGI [14]: 67.1 µM
TGI [57]: > 100 µM
TGI [58]: 67.8 µM
TGI [15]: > 100 µM
TGI [16]: 32.3 µM
TGI [17]: > 100 µM
TGI [18]: 31.9 µM
TGI [19]: 38 µM
TGI [20]: 39.3 µM
TGI [22]: 33.2 µM
TGI [23]: 55.9 µM
TGI [24]: 61.2 µM
TGI [25]: 41.5 µM
TGI [26]: > 100 µM
TGI [27]: 40 µM
TGI [29]: 39.5 µM
TGI [30]: 29.9 µM
TGI [31]: > 100 µM
TGI [33]: 63.2 µM
TGI [34]: 49.6 µM
TGI [35]: 60 µM
TGI [36]: 59.8 µM
TGI [59]: 92.4 µM
TGI [38]: 35.3 µM
TGI [39]: 52.3 µM
TGI [41]: 70.8 µM
TGI [42]: 48.8 µM
TGI [43]: 42.5 µM
TGI [45]: 57 µM
TGI [46]: 43.7 µM
TGI [47]: 87.5 µM
TGI [48]: > 100 µM
TGI [49]: 55.7 µM
TGI [51]: 53.7 µM
TGI [52]: 72.3 µM
TGI [53]: 41 µM
TGI [54]: 36.1 µM
TGI [55]: 33.8 µM

— PubChem BioAssay (NCI)
